US20250057097A1, “PHOSPHODIESTERASES INHIBITORS TO PROMOTE IN VITRO PLANT CELL REPROGRAMMING TOWARDS PLANT EMBRYOGENESIS OR MICROCALLUS FORMATION” (CONSEJO SUPERIOR DE INVESTIGACIONES CIENTÍFICAS (CSIC), priority 2021, published 2025)

Experiments:
[1] = system: Brassica napus microspore cotyledonary embryos; assay: Germination capacity of embryos produced in treated microspore cultures; format: cell-based; settings: cotyledonary embryos from 30-40 days cultures, desiccated and cultured under germination conditions
Description: To evaluate the quality of embryos produced in microspore embryogenesis cultures in the presence of the inhibitors, embryo germination assays were performed. Brassica napus microspore cotyledonary embryos originated from control and treated-cultures were used for in vitro embryo germination and conversion to plantlets as previously described (Prem et al., 2012 BMC Plant Biology 12, 127). The 34-40 old dicotyledonous embryos, after air desiccation on sterile filter paper were germinated in MS (Murashige and Skoog) medium containing sucrose 2% (w/v) and gelled with 7 g/L bacteriological agar (w/v). Microspore derived-embryos were incubated for 15-20 days at 18° C. in darkness conditions till activation of radicle and plumule, and quantified in terms of percentage of embryos showing normal growth, similar to zygotic embryo germination.

[2] = system: Arabidopsis mesophyll protoplasts; assay: Microcallus formation (proliferation efficiency) in immobilized mesophyll protoplasts; format: cell-based, Arabidopsis thaliana; settings: 48 h pulse treatment
Description: Seeds of an Arabidopsis thaliana line overexpressing histone 2B fused with yellow fluorescent protein (H2B-YFP) were surface-sterilized and sown on MS agar. After 24 h stratification, plates were cultured vertically for 7 days under long day conditions (16 h light-8 h dark) at 22° C. Prior to seedling harvest, plates were kept vertically in the dark at 4° C. for 24 h. Protoplasts were isolated from hypocotyl and cotyledons including primary leaves according to Dovzhenko et al., Protoplasma, 222(1-2):107-11 (2003).
Protoplast density was determined by cell counting in a Fuchs-Rosenthal chamber. For immobilization, protoplasts were mixed with equal volumes of 1.2% (w/v) low melting agarose in protoplast buffer, prewarmed at 40° C. and immediately pipetted into a 96-well plate (Ibidi, Germany), prewarmed at 34° C. with 125 μL per well. The plate was immediately centrifuged (2 min, 30 g) and incubated at 4° C. for 5 min, 200 μL of cultivation medium was added on top of each well and the protoplasts were cultivated at 22° C. in the dark. Cultivation medium was composed of macro and micro elements based on Kao K N and Michayluk M R. Planta., 126(2):105-10 (1975), supplemented with 2 μM of 2,4-D and 1 μM of thidiazurone. For PDE inhibitors treatments, PDE inhibitors were dissolved in DMSO and added to the medium with the concentration given (liquid media). […]
An automated microscope (MORE1, Till I.D. GmbH, Munich, Germany) was used for the analysis of protoplast development and for the detection of YFP fluorescence. Transillumination was recorded with 10×0.45 and 20×0.8 objectives (Zeiss); epifluorescence was recorded after excitation with single-mode diode lasers (iBeam smart, Toptica) with excitation of 550 nm (YFP)/green emission filter. […]
Images were recorded immediately after immobilization and 10 days after immobilization (DAIs). […] Quantification of proliferating cells was performed by exploiting shape differences of dividing or closely adjacent nuclei after the application of EDM binary operations on epifluorescence images in comparison with circular fluorescence signals from non-dividing mononucleic cells (Brocher Int. J. Image Process, 8, 30-48 (2014)). Corresponding cellular shape parameters from proliferating microcalli were determined from selecting segmented transillumination images after filtering with processed epiflourescence images using the BioVoxxel binary feature extraction function.
PDE inhibitors were tested for their capability to increase the proliferation rate of Arabidopsis protoplasts isolated from leaves. […] Microscopic images were recorded 10 days after immobilization and proliferating microcalli were identified by the presence of multiple fluorescing nuclei visualized by exploiting the nuclear-encoded H2B-YFP marker (see FIG. 3). […]

Structure (SMILES)	germination capacity / quality of embryos [1]	microcalli formation rate increased by, relative to the untreated control ([2]; 10 μM) [%]	increased rate of microcalli formation relative to the untreated control ([2]; 1 μM) [%]	induction of microcallus formation compared with the untreated control ([2]; 10 μM) [%]
Cc1oc(-c2ccccc2F)nc1CN1CCC[C@@H](C(=O)NCc2cccc(Cl)c2)C1 [JHD1.48, (R)—N-(3-chlorobenzyl)-1-((2-(2-fluorophenyl)-5-methyloxazol-4-yl)methyl) piperidin-3-carboxamide]	well-developed roots and hypocotyls in most embryos	50		
O=C(Nc1c(Cl)cncc1Cl)c1ccc(OC(F)F)c(OCC2CC2)c1 [FDA4.21, 3-(cyclopropylmethoxy)-N-(3,5-dichloropyridin-4-yl)-4-(difluoromethoxy) benzamide, reference compound]	well-developed roots and hypocotyls in most embryos			
COc1ccc(C2CNC(=O)C2)cc1OC1CCCC1 (stereo not drawn) [FDA4.22, 4-(3-cyclopentyloxy-4-methoxyphenyl)pyrrolidin-2-one, reference compound]	well-developed roots and hypocotyls in most embryos			
CSc1nc2ccccc2c(=O)n1-c1c(F)cccc1F [TC2.43, 3-(2,6-Difluorophenyl)-2-methylthio-4-oxo-3,4-dihydroquinazoline]	well-developed roots and hypocotyls in most embryos	200	140	
COc1ccc(-c2nc(-c3ccccc3Br)[nH]c2-c2ccc(OC)cc2)cc1 [AGF4.17, 2-(2-Bromophenyl)-4,5-bis(4-methoxyphenyl)-1H-imidazole]	well-developed roots and hypocotyls in most embryos			250
